# In paper PMC2528936, “Snake Cathelicidin from Bungarus fasciatus Is a Potent Peptide Antibiotics” (PLoS ONE, 2008):
# Read-outs that look alike come from different tables or passages of the source. Where a SMILES comes first, the peptide text is derived from it. Bridges are numbered along the chain shown (N, C = ends).
# How the values were obtained:
# E. coli 08A866(IS, DR) = details: clinically isolated strain, drug resistance for ampicillin and benzylpenicillin; liquid LB broth; mean of three independent experiments in duplicates; ND = no detectable activity
# Procedure: (§1) Antimicrobial activities of cathelicidin-BF and cathelicidin-BF15 ([…]) were tested according to our previous methods [39]–[42]. […] The details were provided in the Materials and Methods S1.
# (§2) Standard and clinically isolated microorganism strains were used for antimicrobial assays. Bacteria were first grown in LB (Luria-Bertani) broth to an OD600 nm of 0.8. A 10 µl aliquot of the bacteria was then taken and added to 8 ml of fresh LB broth with 0.7% agar and poured over a 90 mm Petri dish containing 25 ml of 1.5% agar in LB broth. After the top agar hardened, a 20 µl aliquot of the test sample filtered on a 0.22 µm Millipore filter was dropped onto the surface of the top agar and completely dried before being incubated overnight at 37 °C. If the sample examined had antimicrobial activity, a clear zone would be formed on the surface of the top agar representing inhibition of bacterial growth. Minimal inhibitory concentration (MIC) was determined in liquid LB medium by incubating the bacteria in LB broth with variable amounts of the sample tested. The MIC at which no visible growth occurred was recorded. In the assays of anti-fungi activity, for strains of Aspergillus terreus, A. niculans, and Chaetomium globosum, the fungal spore concentration was first counted under a microscope. The fungi with an initial concentration of 10^5 spores/ml were cultured with variable amounts of the sample tested in yeast extract-peptone-dextrose broth.
# E. coli 08A866 = type: cell-based, Escherichia coli; details: for Amount of bacteria co-cultured with sample: Table 4, LB, 35 °C
# Procedure: The details were provided in the Materials and Methods S1.
# Fresh overnight colonies were added to a total of 20 ml LB, and incubated on a 35 °C water bath. After one hour of incubation, 1 ml broth from each flask was replaced with the test solution. The colony counting was performed at different time after addition of the test solutions as described by Mygind et al.
# [1] = tested on: Pseudomonas aeruginosa ATCC27853; assay: microbe, parasite or virus in culture; details: ATCC27853
# Procedure: as §1, §2
# Bacillus subtilis = assay: microbe, parasite or virus in culture
# Procedure: as §1, §2
# [2] = tested on: Escherichia coliATCC25922; assay: microbe, parasite or virus in culture; details: ATCC25922
# Procedure: as §1, §2
# [3] = tested on: Staphylococcus aureus ATCC2592; assay: microbe, parasite or virus in culture; details: ATCC2592
# Procedure: as §1, §2
# [4] = tested on: Candida albicans ATCC2002; assay: microbe, parasite or virus in culture
# Procedure: as §1, §2
smiles,measurement,setting,value
CC[C@H](C)[C@H](NC(=O)[C@H](C)NC(=O)[C@@H](NC(=O)[C@@H]1CCCN1C(=O)[C@H](CC(C)C)NC(=O)[C@@H](NC(=O)[C@H](CO)NC(=O)[C@@H](NC(=O)[C@H](C)NC(=O)[C@@H](NC(=O)[C@H](CCCCN)NC(=O)[C@H](CC(C)C)NC(=O)[C@@H](NC(=O)[C@@H]1CCCN1C(=O)CNC(=O)[C@@H](NC(=O)[C@@H](N)Cc1ccccc1)[C@@H](C)CC)C(C)C)[C@@H](C)CC)[C@@H](C)O)[C@@H](C)CC)[C@@H](C)O)C(=O)N[C@H]1CSSC[C@@H](C(=O)O)NC(=O)[C@H](CCCCN)NC(=O)[C@H](CCCCN)NC(=O)[C@H](Cc2ccccc2)NC(=O)[C@H]([C@@H](C)CC)NC(=O)[C@H](CCCCN)NC1=O [HDW] (H-FIGPVLKIATSILPTAICKIFKKC-OH; disulfide 18-24 (inferred); N-terminus and C-terminus assumed),MIC,"E. coli 08A866(IS, DR)",18.7 µg/mL
same,Amount of bacteria co-cultured with sample,"E. coli 08A866; sample at 1 times MIC, time 0.1 min",49 CFU
same,Amount of bacteria co-cultured with sample,"E. coli 08A866; sample at 1 times MIC, time 1 min",14.7 CFU
same,Amount of bacteria co-cultured with sample,"E. coli 08A866; sample at 1 times MIC, time 10 min",0 CFU
same,Amount of bacteria co-cultured with sample,"E. coli 08A866; sample at 1 times MIC, time 30 min",0 CFU
same,Amount of bacteria co-cultured with sample,"E. coli 08A866; sample at 10 times MIC, time 0.1 min",38 CFU
same,Amount of bacteria co-cultured with sample,"E. coli 08A866; sample at 10 times MIC, time 1 min",3.7 CFU
same,Amount of bacteria co-cultured with sample,"E. coli 08A866; sample at 10 times MIC, time 10 min",0 CFU
same,Amount of bacteria co-cultured with sample,"E. coli 08A866; sample at 10 times MIC, time 30 min",0 CFU
same,time to clean E. coli,"E. coli 08A866; killing kinetics during 30 min (Table 4), comparison of cathelicidin-BF and HDW",several minutes
same,MIC,[1],37.5 µg/mL
same,MIC,Bacillus subtilis,2.3 µg/mL
same,MIC,[2],18.7 µg/mL
same,MIC,[3],1.2 µg/mL
same,MIC,[4],2.3 µg/mL
